Data as given in patent US20180055032A1, “ODORS FOR PSYLLID TRAPPING, REPELLING AND CONTROL” (The Regents of the University of California, priority 2011, published 2018).

Assays:
[1] = system: neuron 2A (rhinarial plate on flagellomere 2); test: single-sensillum electrophysiology, odor response of neuron 2A; format: cell-based, Diaphorina citri; conditions: Table 1; odor diluted to 1%, 50 μL in cartridge; further: key: 0, no response; +, >50 spikes/second; ++, >100 spikes/second; +++, >150 spikes/second
[2] = system: neuron 2B (rhinarial plate on flagellomere 2); test: single-sensillum electrophysiology, odor response of neuron 2B; format: cell-based, Diaphorina citri; conditions: Table 1; odor diluted to 1%, 50 μL in cartridge
[3] = system: neuron 2C (rhinarial plate on flagellomere 2); test: single-sensillum electrophysiology, odor response of neuron 2C; format: cell-based, Diaphorina citri; conditions: Table 1; odor diluted to 1%, 50 μL in cartridge
[4] = system: neuron 4A (rhinarial plate on flagellomere 4); test: single-sensillum electrophysiology, odor response of neuron 4A; format: cell-based, Diaphorina citri; conditions: Table 1; odor diluted to 1%, 50 μL in cartridge
[5] = system: neuron 4B (rhinarial plate on flagellomere 4); format: cell-based, Diaphorina citri; conditions: Table 1; odor diluted to 1%, 50 μL in cartridge
[6] = system: neuron 4C (rhinarial plate on flagellomere 4); test: single-sensillum electrophysiology, odor response of neuron 4C; format: cell-based, Diaphorina citri; conditions: Table 1; odor diluted to 1%, 50 μL in cartridge
[7] = system: neuron 6A (rhinarial plate on flagellomere 6); test: single-sensillum electrophysiology, odor response of neuron 6A; format: cell-based, Diaphorina citri; conditions: Table 1; odor diluted to 1%, 50 μL in cartridge
[8] = system: neuron 6B (rhinarial plate on flagellomere 6); test: single-sensillum electrophysiology, odor response of neuron 6B; format: cell-based, Diaphorina citri; conditions: Table 1; odor diluted to 1%, 50 μL in cartridge
[9] = system: neuron 6C (rhinarial plate on flagellomere 6); test: single-sensillum electrophysiology, odor response of neuron 6C; format: cell-based, Diaphorina citri; conditions: Table 1; odor diluted to 1%, 50 μL in cartridge
[10] = system: neuron 7A (rhinarial plate on flagellomere 7); test: single-sensillum electrophysiology, odor response of neuron 7A; format: cell-based, Diaphorina citri; conditions: Table 1; odor diluted to 1%, 50 μL in cartridge; further: key: 0, no response; +, >50 spikes/second; ++, >100 spikes/second; +++, >150 spikes/second
[11] = system: neuron 7B (rhinarial plate on flagellomere 7); format: cell-based, Diaphorina citri; conditions: Table 1; odor diluted to 1%, 50 μL in cartridge
[12] = system: neuron 7C (rhinarial plate on flagellomere 7); test: single-sensillum electrophysiology, odor response of neuron 7C; format: cell-based, Diaphorina citri; conditions: Table 1; odor diluted to 1%, 50 μL in cartridge
[13] = system: ACP; conditions: cited from earlier work
[14] = system: ACP; conditions: small plot field trial, cited from earlier work

SMILES | odor response (frequency of action potentials during stimulus minus baseline), 2A [1] | odor response (frequency of action potentials during stimulus minus baseline), 2B [2] | odor response (frequency of action potentials during stimulus minus baseline), 2C [3] | odor response (frequency of action potentials during stimulus minus baseline), 4A [4] | odor response (frequency of action potentials during stimulus minus baseline), 4B [5] | odor response (frequency of action potentials during stimulus minus baseline), 4C [6] | odor response (frequency of action potentials during stimulus minus baseline), 6A [7] | odor response (frequency of action potentials during stimulus minus baseline), 6B [8] | odor response (frequency of action potentials during stimulus minus baseline), 6C [9] | odor response (frequency of action potentials during stimulus minus baseline), 7A [10] | odor response (frequency of action potentials during stimulus minus baseline), 7B [11] | odor response (frequency of action potentials during stimulus minus baseline), 7C [12] | ACP behavior in lab behavior assays ([13]; at lower concentration) | ACP behavior in laboratory behavioral assays ([13]; high amounts, as released by citrus plants under physical stress) | reduction in ACP densities ([14]; low psyllid density area (average 3-4 ACP/10 trees)) [%] | duration of reduction in ACP densities [14]
COC(=O)c1ccccc1O [methyl salicylate] | 0 | 0 | 0 | 0 | + (+, >50 spikes/second) | 0 | 0 | + (+, >50 spikes/second) | 0 | 0 | + (+, >50 spikes/second) | 0 | attracted | repellency |  | 
CC/C=C\CCO [Z3-hexenol] | 0 | 0 | 0 | 0 | + (+, >50 spikes/second) | 0 | 0 | + (+, >50 spikes/second) | 0 | 0 | 0 | 0 |  |  |  | 
C=CCSSCC=C [allyl disulfide] | 0 | 0 | 0 | 0 | ++ (++, >100 spikes/second) | 0 | 0 | + (+, >50 spikes/second) | 0 | 0 | 0 | 0 |  |  |  | 
C=C(C)C1CC=C(C)CC1 (single isomer, unassigned; (+)) [(+)-limonene] | 0 | 0 | + (+, >50 spikes/second) | 0 | + (+, >50 spikes/second) | 0 | 0 | + (+, >50 spikes/second) | 0 | 0 | 0 | 0 |  |  |  | 
C=C/C(C)=C\C/C=C(\C)CCC=C(C)C [ZE-α-farnesene] | 0 | 0 | + (+, >50 spikes/second) | 0 | 0 | 0 | 0 | 0 | 0 | 0 | 0 | 0 |  |  |  | 
O=Cc1ccccc1 [benzaldehyde] | 0 | 0 | + (+, >50 spikes/second) | 0 | + (+, >50 spikes/second) | 0 | 0 | 0 | 0 | 0 | 0 | 0 |  |  |  | 
C=C/C(C)=C/CC=C(C)C [E-β-Ocimene] | 0 | 0 | ++ (++, >100 spikes/second) | 0 | 0 | 0 | 0 | 0 | 0 | 0 | 0 | 0 |  |  |  | 
CC1=CCC2C(C1)C2(C)C (stereo not shown) [δ-3-carene] | 0 | 0 | 0 | 0 | ++ (++, >100 spikes/second) | 0 | 0 | ++ (++, >100 spikes/second) | 0 | 0 | 0 | 0 |  |  |  | 
CSSC [DMDS, dimethyl disulfide] |  |  |  |  |  |  |  |  |  |  |  |  |  |  | 65 | up to three
O=CCc1ccccc1 [phenylacetaldehyde] | 0 | 0 | 0 | 0 | + (+, >50 spikes/second) | 0 | 0 | + (+, >50 spikes/second) | 0 | 0 | 0 | 0 |  |  |  | 
